# Reference: patent publication US6166084A, “Compositions for the treatment of chronic wounds” (Johnson & Johnson Medical, Ltd., priority 1996, dated 2000)
# Key:
# [1] = test system: TNF-α induced CD 54, Intercellular Adhesion Molecule (ICAM-1) expression by Human Umbilical Vein Endothelial Cells (HUVEC); experiment: TNF-α induced ICAM-1 expression by HUVEC (ELISA); type: cell-based; settings: TNF-α 0.5 ng/ml
# Description: The effects of NAC on the expression of the TNF-α induced CD 54, Intercellular Adhesion Molecule (ICAM-1) by Human Umbilical Vein Endothelial Cells (HUVEC) was assessed as follows.
# DL-Buthionine sulphoximine (BSO) was used to pretreat the cells. BSO is an inhibitor of glutathione synthesis and therefore reduces the glutathione content of the HUVEC rendering them more susceptible to oxidative stress and mimicking the conditions implicated in chronic wounds. NAC was used as a treatment to inhibit the expression of ICAM-1 by interfering with the TNF-α mediated intracellular signalling.
# HUVEC were seeded to wells of 96 well plates (5000 cells per well in 100 μl Endothelial Growth Medium (EGM)). The plates were allowed to grow until the cells reached 90% confluence. The medium was decanted from each plate and the following treatments (all volumes were 200 μl, performed in quadruplicate wells) where then applied to the HUVEC. […]
# ICAM-1 expression, stimulated by inflammatory mediators such as tumour necrosis factor, can be detected on the surface of cells (endothelial cells, monocytes, T&B cells, keratinocytes, chondrocytes and epithelial cells) using ELISA techniques, as follows: […]
# 8. Stop the reaction when colour develops by the addition of 1M H2 SO4 (100 μl per well) and read the absorbance at 450 nm using a Dynatech (RTM) plate reader.
# [2] = test system: matrix metalloproteinases (MMP) from human wound fluid; experiment: MMP activity by gelatin SDS-PAGE zymography; type: biochemical; settings: 18 hours at 37° C., pH 7.8
# Description: The effect of NAC concentration on the activity of matrix metalloproteinases (MMP) from human wound fluid was assessed as follows.
# The MMP activity was determined by gelatin SDS polyacrylamide gel electrophoresis (zymography) similar to that described by Heussen C. and Dowdle E. B. in Anal. Biochem. 102:196-202 (1980).
# The experimental method was as follows:
# 1. Gel preparation. The following components were mixed thoroughly:
# 1. 5 ml 30% acrylamide/bis acrylamide (30 g acrylamide (Sigma A8887) plus 0.8 g N-N'-methylene bis-acrylamide (Sigma M7279) in 100 ml deionised water).
# 2. 6.05 ml deionised water.
# 3. 3.75 ml 1.5M Tris-HCl buffer.
# 4. 150 μl 10% sodium dodecyl sulphate (SDS. Fisons S/5200/53).
# 5. 1 ml warm (60° C.) gelatin (Sigma G9382) solution (7.5 mgml^-1).
# 6. Immediately prior to casting the gel 50 μl 10% ammonium persulphate (APS, Fisons A/6160/53) and 12.5 μl tetramethylethylenediamine (TEMED, Sigma T9281).
# 4.5 ml of the above mixture was added to the electrophoresis apparatus (Dual Mini Slab Kit, Atto Corporation), and covered with propanol saturated water. The gel was left gel to polymerise for at least 45 minutes. Then propanol solution was decanted and added to 1 ml of stacking gel solution (3.15 ml deionised water, 0.75 ml 30% acrylamide/bis-acrylamide, […] 1.5M Tris-HCl, 50 μl 10% SDS, 50 μl ammonium persulphate and 10 μl TEMED). Finally, a sample comb (8 lane comb) was inserted and the gel left to polymerise for at least 45 minutes.
# 2. Sample preparation: A matrix metalloprotease (MMP) sample (10% solution of human acute wound fluid diluted in MMP proteolysis buffer (see below)) was diluted 1:1 with sample buffer (6.3 ml 0.5M Tris-HCl pH 6.8, 2.5 ml glycerol, 0.5 g SDS, 16.2 ml deionised water and bromophenol blue to colour).
# 3. Sample loading and electrophoresis: 20 μl of the MMP samples were loaded into 8 lanes of the gel. The MMP's were separated for 1 hour at 20 mA/100V per gel until the dye front was almost at the bottom of the gel. The gel apparatus was then dismantled and the gel removed.
# 4. Proteolysis: Washed gels for 30 minutes with 100 ml 2.5% Triton X-100. The procedure was repeated three times. The gels were cut into slices consisting of two lanes per slice. The gel slices were incubated in 20 ml proteolysis buffer (50 mM Tris-HCl pH 7.8, 50 mM CaCl2, 0.5M NaCl) containing the following treatments (each treatment was adjusted to pH 7.8) for 18 hours at 37° C.: (1) proteolysis buffer alone; (2) N-acetyl cysteine (44 mM); (3) N-acetyl cysteine (4.4 mM); (4) N-acetyl cysteine (0.44 mM).
# 5. […]
# The area of the individual zones of clearance on the gels, which are due to proteinase activity, were accurately measured by the Optilab (RTM) system. […]
compound,measurement,setting,value
"CC(=O)N[C@@H](CS)C(=O)O [NAC, N-acetyl-3-mercaptoalanine]",inhibition of ICAM-1 expression (concentration dependence),"[1]; BSO (50 μM) pretreated HUVEC, NAC 1.1, 3.3, 10 mM, FIG. 1",concentration-dependent inhibition
same,"inhibition of ICAM-1 expression, all NAC concentrations","[1]; NAC 10, 3.3 and 1.1 mM, P<0.05, Students T-test, BSO pretreated HUVEC",significant inhibition
same,inhibition of MMP activity,[2]; 0.44 mM NAC,approximately 10%
same,inhibition of MMP activity,[2]; 4.4 mM NAC solution,Approximately 70%
same,inhibition of MMP activity,[2]; 44 mM NAC solution,substantially complete
same,inhibition of MMP activity (concentration dependence),"[2]; NAC 0.44, 4.4, 44 mM, FIG. 2",clear concentration-dependent inhibition
